Measurements: ChEMBL document CHEMBL3351435, “New pyrrole derivatives with potent tubulin polymerization inhibiting activity as anticancer agents including hedgehog-dependent cancer” (J Med Chem, 2014)
Calls of active or inactive are those of the source. The calls are words filed in the database; no cut-off is given here.

Experiments:
NCI/ADR-RES = assay: Cytotoxicity against human NCI/ADR-RES cells assessed as growth inhibition after 96 hrs by Giemsa staining-based light microscopy; assay type: functional, cell-based
[1] = Volume of distribution at steady state in CD-1 mouse at 5 mg/kg, iv; assay type: ADME, organism-based; parameters: dose 5 mg/kg, route intravenous; settings: in vivo, read-out: Vdss
CYP1A2 = target: T1, CYP1A2 (Homo sapiens, UniProt P05177); assay: Inhibition of human CYP1A2 using furafylline as substrate at 1 uM; assay type: ADME; settings: probe furafylline
T1 sequence (P05177 whole entry): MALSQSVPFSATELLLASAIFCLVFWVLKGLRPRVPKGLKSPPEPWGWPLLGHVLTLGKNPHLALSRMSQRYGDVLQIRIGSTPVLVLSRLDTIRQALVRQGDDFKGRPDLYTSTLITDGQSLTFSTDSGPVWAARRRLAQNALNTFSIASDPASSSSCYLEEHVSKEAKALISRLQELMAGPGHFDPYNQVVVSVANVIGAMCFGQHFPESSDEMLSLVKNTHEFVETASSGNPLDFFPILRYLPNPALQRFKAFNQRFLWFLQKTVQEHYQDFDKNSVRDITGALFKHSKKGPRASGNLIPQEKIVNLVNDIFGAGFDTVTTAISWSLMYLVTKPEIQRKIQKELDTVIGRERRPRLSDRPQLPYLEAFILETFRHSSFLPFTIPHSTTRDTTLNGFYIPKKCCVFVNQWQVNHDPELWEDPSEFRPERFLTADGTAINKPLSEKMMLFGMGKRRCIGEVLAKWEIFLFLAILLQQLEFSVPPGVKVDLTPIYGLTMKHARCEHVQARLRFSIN

RD [2] = assay: Cell cycle arrest in human RD cells assessed as accumulation at G2/M phase at 500 nM after 24 hrs by propidium iodide staining-based flow cytometry; assay type: functional
[3] = Mean residence time in CD-1 mouse at 15 mg/kg, po; assay type: ADME, organism-based; parameters: dose 15 mg/kg, route oral; settings: in vivo
CYP2D6 = CYP2D6 (Homo sapiens, UniProt P10635); assay: Inhibition of human CYP2D6 using quinidine as substrate at 1 uM; assay type: ADME; settings: probe quinidine
[4] = Cmax in CD-1 mouse at 15 mg/kg, po; assay type: ADME, organism-based; parameters: dose 15 mg/kg, route oral; settings: in vivo
HepG2 [5] = assay: Induction of apoptosis in human HepG2 cells at 500 to 2000 nM after 48 hrs by annexin-V/propidium iodide staining-based flow cytometry; assay type: functional, cell-based
HeLa [6] = assay: Cell cycle arrest in human HeLa cells assessed as accumulation at G2/M phase at 100 nM by propidium iodide staining-based flow cytometry; assay type: functional
RD [7] = assay: Cytotoxicity against human RD cells assessed as growth inhibition after 48 hrs by MTT method; assay type: functional, cell-based
[8] = Clearance in CD-1 mouse at 5 mg/kg, iv; assay type: ADME, organism-based; parameters: dose 5 mg/kg, route intravenous; settings: in vivo
HepG2 [9] = assay: Cell cycle arrest in human HepG2 cells at 500 to 2000 nM incubated for 24 hrs followed by compound washout measured after 24 hrs; assay type: functional, cell-based
Mus musculus [10] = assay: Oral bioavailability (last) in CD-1 mouse at 15 mg/kg; assay type: ADME, organism-based; settings: in vivo
MCF7 = assay: Cytotoxicity against human MCF7 cells after 96 hrs by Giemsa staining-based light microscopy; assay type: functional, cell-based; settings: MCF7, 96 h
HeLa [11] = assay: Induction of apoptosis in human HeLa cells assessed as blockage of mitotic progression at 20 to 100 nM by annexin V staining-based immunofluorescence microscopy; assay type: functional, cell-based
HeLa [12] = assay: Cell cycle arrest in human HeLa cells by propidium iodide staining-based flow cytometry; assay type: functional
[13] = Tmax in CD-1 mouse at 15 mg/kg, po; assay type: ADME, organism-based; parameters: dose 15 mg/kg, route oral; settings: in vivo
[14] = Elimination half life in CD-1 mouse at 5 mg/kg, iv; assay type: ADME, organism-based; parameters: dose 5 mg/kg, route intravenous; settings: in vivo, read-out: beta t1/2
HeLa [15] = assay: Cell cycle arrest in human HeLa cells assessed as accumulation at G2/M phase at 20 nM by propidium iodide staining-based flow cytometry; assay type: functional
[16] = Cytotoxicity against human MESSA cells assessed as growth inhibition after 72 hrs by CellTitre-Glo assay; assay type: functional, cell-based; settings: MES-SA
HeLa [17] = assay: Cytotoxicity against human HeLa cells assessed as growth inhibition after 48 hrs by MTT method; assay type: functional, cell-based
A549 = assay: Cytotoxicity against human A549 cells assessed as growth inhibition after 48 hrs by MTT method; assay type: functional, cell-based; settings: A549, 48 h
RD [18] = assay: Induction of apoptosis in human RD cells at 500 to 2000 nM after 48 hrs by annexin-V/propidium iodide staining-based flow cytometry; assay type: functional, cell-based
RD [19] = assay: Cell cycle arrest in human RD cells at 500 nM incubated for 24 hrs followed by compound washout measured after 24 hrs; assay type: functional, cell-based
HeLa [20] = assay: Induction of apoptosis in human HeLa cells assessed as blockage of mitotic progression at 100 nM by annexin V staining-based immunofluorescence microscopy; assay type: functional, cell-based
HeLa [21] = assay: Cell cycle arrest in human HeLa cells assessed as reduction in mitotic slippage at 100 nM by annexin V staining-based immunofluorescence microscopy; assay type: functional
Tubulin = assay: Inhibition of tubulin (unknown origin) polymerization incubated 15 mins prior to GTP addition by spectrophotometry; assay type: protein-complex assay, Homo sapiens
[22] = Cytotoxicity against human MESSA/DX5 cells assessed as growth inhibition after 72 hrs by CellTitre-Glo assay; assay type: functional, cell-based; settings: MES-SA/Dx5, 72 h
HepG2 [23] = assay: Cell cycle arrest in human HepG2 cells assessed as accumulation at G2/M phase at 500 nM after 24 hrs by propidium iodide staining-based flow cytometry; assay type: functional
HeLa [24] = assay: Induction of apoptosis in human HeLa cells assessed as failure of MT elongation at 20 nM by immunofluorescence analysis; assay type: functional, cell-based
HeLa [25] = assay: Cell cycle arrest in human HeLa cells assessed as mitotic rounded-up phenotype at 100 nM by light microscopy; assay type: functional, cell-based
CYP2C19 = CYP2C19 (Homo sapiens, UniProt P33261); assay: Inhibition of human CYP2C19 using tranylcypromine as substrate at 1 uM; assay type: ADME; settings: probe tranylcypromine
K562 [26] = assay: Cytotoxicity against human K562 cells assessed as growth inhibition after 96 hrs by Giemsa staining-based light microscopy; assay type: functional, cell-based; settings: K562, 96 h
K562 [27] = assay: Cell cycle arrest in human K562 cells assessed as mitotic index at 10 times IC50 (reference value: […] +/- […]%); assay type: functional
[28] = Cmax in CD-1 mouse at 5 mg/kg, iv; assay type: ADME, organism-based; parameters: dose 5 mg/kg, route intravenous; settings: in vivo
Mus musculus [29] = assay: Clast in CD-1 mouse at 5 mg/kg, iv; assay type: ADME, organism-based; parameters: dose 5 mg/kg, route intravenous; settings: in vivo
[30] = Initial plasma concentration in CD-1 mouse at 5 mg/kg, iv; assay type: ADME, organism-based; parameters: dose 5 mg/kg, route intravenous
HeLa [31] = assay: Cell cycle arrest in human HeLa cells assessed as mitotic rounded-up phenotype at 20 nM by light microscopy; assay type: functional, cell-based
RD [32] = assay: Cell cycle arrest in human RD cells assessed as rounded cells at 500 nM after 24 hrs by propidium iodide staining-based flow cytometry; assay type: functional
Mus musculus [33] = assay: Tlast in CD-1 mouse at 5 mg/kg, iv; assay type: ADME, organism-based; parameters: dose 5 mg/kg, route intravenous; settings: in vivo
cells = settings: Homo sapiens, OVCAR-8, 96 h
Description: Cytotoxicity against human OVCAR8 cells assessed as growth inhibition after 96 hrs by Giemsa staining-based light microscopy

Mus musculus [34] = assay: AUC (0 to 480 mins) in CD-1 mouse at 15 mg/kg, po; assay type: ADME, organism-based, Plasma; parameters: time < 8 hr, dose 15 mg/kg, route oral; settings: in vivo, 8 h
Mus musculus [35] = assay: Tlast in CD-1 mouse at 15 mg/kg, po; assay type: ADME, organism-based; parameters: dose 15 mg/kg, route oral; settings: in vivo

CYP2D6, sequence (P10635 whole entry): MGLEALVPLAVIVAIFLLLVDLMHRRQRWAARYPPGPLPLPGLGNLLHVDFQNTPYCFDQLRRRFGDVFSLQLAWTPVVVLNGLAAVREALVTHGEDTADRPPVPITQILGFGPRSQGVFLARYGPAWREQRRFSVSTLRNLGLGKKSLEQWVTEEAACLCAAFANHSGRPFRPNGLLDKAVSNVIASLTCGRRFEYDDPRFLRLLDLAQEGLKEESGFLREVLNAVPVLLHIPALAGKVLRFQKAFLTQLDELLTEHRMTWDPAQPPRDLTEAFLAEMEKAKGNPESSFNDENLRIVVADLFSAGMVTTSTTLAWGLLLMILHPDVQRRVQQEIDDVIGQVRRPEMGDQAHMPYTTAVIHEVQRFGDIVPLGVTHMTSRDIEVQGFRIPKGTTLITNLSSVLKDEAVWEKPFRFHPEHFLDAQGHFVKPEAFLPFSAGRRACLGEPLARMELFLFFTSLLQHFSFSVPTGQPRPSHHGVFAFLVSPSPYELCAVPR
CYP2C19, sequence (P33261 whole entry): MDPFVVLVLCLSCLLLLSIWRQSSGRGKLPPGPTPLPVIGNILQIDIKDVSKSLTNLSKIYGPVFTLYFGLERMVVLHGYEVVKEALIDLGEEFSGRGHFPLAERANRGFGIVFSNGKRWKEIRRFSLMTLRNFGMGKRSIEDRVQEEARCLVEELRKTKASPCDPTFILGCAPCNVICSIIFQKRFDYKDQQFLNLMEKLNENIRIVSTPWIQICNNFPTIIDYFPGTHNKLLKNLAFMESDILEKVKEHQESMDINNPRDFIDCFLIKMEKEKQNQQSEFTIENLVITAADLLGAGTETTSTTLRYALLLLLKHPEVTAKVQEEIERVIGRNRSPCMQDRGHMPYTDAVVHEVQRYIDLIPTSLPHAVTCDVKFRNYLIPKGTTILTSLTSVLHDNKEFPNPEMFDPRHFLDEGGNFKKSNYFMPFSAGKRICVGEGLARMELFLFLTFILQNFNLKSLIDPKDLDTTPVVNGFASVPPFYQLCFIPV

## COc1cc(C(=O)c2ccn(-c3cccc(N)c3)c2)cc(OC)c1OC
NCI/ADR-RES
  IC50: 1 nM
[1]
  Vd: 2.7 L/kg
CYP1A2
  inhibition at 1 µM: 66.8%
RD [2]
  Activity: Active
[3]
  MRT: 2.42 h
CYP2D6
  inhibition at 1 µM: < 5%
[4]
  Cmax: 1770 ng/mL
HepG2 [5]
  Activity: Active
HeLa [6]
  Activity: Active
RD [7]
  IC50: 95.3 nM
[8]
  clearance: 80.8 mL/min/kg
HepG2 [9]
  Activity: inactive
Mus musculus [10]
  F: 49%
MCF7
  IC50: 15 nM
HeLa [11]
  Activity: Active
HeLa [12]
  Activity: Dose-dependent effect
[13]
  Tmax: 5 min
[14]
  half-life: 1.23 h
HeLa [15]
  Activity: Active
[16]
  IC50: 1.8 nM
HeLa [17]
  IC50: 30 nM
A549
  IC50: 10 nM
RD [18]
  Activity: Active
RD [19]
  Activity: Active
HeLa [20]
  Activity: Active
HeLa [21]
  Activity: inactive
Tubulin
  IC50: 1400 nM
[22]
  IC50: 4.6 nM
HepG2 [23]
  Activity: Active
HeLa [24]
  Activity: Active
HeLa [25]
  Activity: Active
CYP2C19
  inhibition at 1 µM: 72.6%
K562 [26]
  IC50: 20 nM
K562 [27]
  Activity: 60%
[28]
  Cmax: 3400 ng/mL
Mus musculus [29]
  Clast: 2.3 ng/mL
[30]
  C0: 4150 ng/mL
HeLa [31]
  Activity: Active
RD [32]
  Activity: Active
Mus musculus [33]
  Tlast: 480 min
cells
  IC50: 7 nM
Mus musculus [34]
  AUC: 79441 ng·min/mL
Mus musculus [35]
  Tlast: 480 min
